# Where a name gives a salt, the structure may show the parent alone.
# How the values were obtained:
# LLC/luc cells = assay: LLC/luc metastatic lung cancer mouse model; assay type: in vivo; conditions: C1 0.556 nmole/g, C2 0.085 nmole/g i.v. every 3 days for 30 days
# Text: (A) The molecular docking of GLK kinase domain structure with C1 (verteporfin). A three-dimensional structure model depicts the binding of C1 to the predicted GLK kinase domain containing phosphorylated Ser-170. The putative binding affinity was −7.4 kcal/mol. (B) The molecular docking of GLK kinase domain structure with C2 (alexidine dihydrochloride). A three-dimensional structure model depicts the binding of C2 to the predicted GLK kinase domain containing phosphorylated Ser-170. The putative binding affinity was −7.0 kcal/mol. (C) Co-immunoprecipitation (co-IP) of Flag-tagged GLK and GFP-fusion GLK using lysates of HEK293T cells co-transfected with Flag-GLK and GFP-GLK plasmids. Cells were treated with C1 (verteporfin) or C2 (alexidine dihydrochloride). (D) Administration of the GLK inhibitor C1 (0.556 nmole/g) or C2 (0.085 nmole/g) every 3 days for 30 days in the LLC/luc metastatic lung cancer mouse model. (E) The luciferase activity in mice treated with C1 (verteporfin), C2 (alexidine dihydrochloride), or vehicle was detected by IVIS Spectrum. (F) Luminescent intensity of photons emitted from LLC/luc cells in the images in (e) was quantified. (G) Representative immunohistochemistry of H&E in lung tissues from mice treated with C1 (verteporfin), C2, or vehicle. Scale bar, 0.5 cm. (H) In situ PLA assays of the interaction between GLK and IQGAP1 (upper panel) or phosphorylated IQGAP1 Ser-480 (lower panel) in lung tissues from mice treated with C1 (verteporfin), C2 (alexidine dihydrochloride), or vehicle in the LLC/luc metastatic lung cancer mouse model. Original magnification, ×40. We studied whether GLK inhibitors also suppress cancer cell migration. […] Moreover, both C1 (verteporfin) and C2 (alexidine dihydrochloride) treatments suppressed tumor growth in the xenograft mouse model using TC-1 lung cancer cells (FIG. 15). To study whether GLK deficiency results in a reduction of lung cancer metastasis, we used a metastatic Lewis lung carcinoma (LLC) mouse model by tail vein injection of luciferase-expressing LLC (LLC/luc) cells. We identified two GLK inhibitors (verteporfin and alexidine dihydrochloride)) using cell-based assays and in vitro kinase assays. […] The dimerization of Flag-tagged GLK protein and GFP-GLK fusion protein was indeed blocked by the C1 (verteporfin) treatment (FIG. 16C). We treated the LLC/luc cells-containing mice with the GLK inhibitor C1 (verteporfin) or C2 (alexidine dihydrochloride) by intravenous injection every 3 days for 30 days (FIG. 16D). The luciferase activity of LLC/luc cells in the mice was detected by In Vivo Imaging System. The excised lungs were weighed and subjected to H&E staining. […] Inhibition of kinase activity of GLK (MAP4K3) or other MAP4Ks was determined by in vitro kinase assays using myelin basic protein (MBP) as a substrate. […]
# [1] = system: GLK-induced NF-κB-luciferase activity; assay: NF-κB-driven luciferase reporter assay in CHO-GLK-Luc cells; assay type: cell-based; conditions: stable GLK-transfected CHO-K1 cells
# Method: (A) Luciferase activity of NF-κB-driven reporter assays in stable GLK-transfected CHO-K1 cells that were treated with or without the GLK inhibitor C1 (verteporfin) under the indicated concentration. The fold changes are presented relative to the value of vector control. (B) Recombinant proteins of GLK kinase domain plus recombinant proteins of GST-tagged kinase-dead PKCθ (K409W) were subjected to in vitro kinase assays in the presence or absence of the GLK inhibitor C1 (verteporfin). Means±SD of are shown. *, P value<0.05; **, P value<0.01 (two-tailed Student's t-test). (C) The AhR-RORγt complex was inhibited by the GLK inhibitor. Confocal microscopy of proximity ligation assays (PLA) for the interaction between AhR and either RORγt or phospho-RORγt (S489) in peripheral blood T cells treated with C1 (verteporfin) (5 μM) for 30 min. The T cells were freshly isolated from 4 SLE patients and 1 RA patients. C1 denotes verteporfin; C2 denotes alexidine dihydrochloride. (D) Quantification of the PLA signals of (C). (E) FRET assays of HEK293T cells co-transfected with CFP-AhR, YFP-RORγt, and IKKβ plasmids.
# Cell-based high-throughput screening was conducted against a representative library of 100,000 molecules at ˜10 μM. CHO-GLK-Luc cells expressing GLK and NF-κB-luciferase reporter were used. […] This high-throughput screening campaign was successful with a determined Z′ factor of 0.57˜0.60. […]
# TC-1 lung cancer cells = assay: TC-1 lung cancer xenograft model in wild-type mice; assay type: in vivo, mouse; conditions: i.v. C1 10 uM, C2 17 uM every 3 days for 15 days
# Method: (A) Murine TC-1 lung cancer cells were subcutaneously inoculated into the right flank of wild-type mice for establishing a TC-1 xenograft model. TC-1 cells inoculated mice were intravenously injected with PBS, C1 (verteporfin) (10 uM), or C2 (alexidine dihydrochloride) (17 uM) every 3 days for 15 days. (B) Photographs of excised TC-1 lung cancers after receiving PBS, C1 (verteporfin) (10 uM), or C2 (17 uM) treatment. (C) The growth (mean tumor volume) of tumor was measured for 15 days. The TC-1 tumor size progression as a function of time post-administration with C1 or C2. N.D., not detectable. C1 denotes verteporfin; C2 denotes alexidine dihydrochloride.
SMILES,cancer colony in lung (histology) (LLC/luc cells),luciferase activity of LLC/luc cells in the lung (LLC/luc cells),GLK signaling in cell lines (luciferase reporter) [1],tumor growth (mean tumor volume) (TC-1 lung cancer cells)
"C=Cc1c(C)c2cc3nc(cc4[nH]c(cc5nc(cc1[nH]2)C(C)=C5CCC(=O)O)c(CCC(=O)OC)c4C)[C@@]1(C)C3=CC=C(C(=O)OC)[C@H]1C(=O)OC [C1, verteporfin]",reduction,reduced,efficiently inhibited,suppressed
"CCCCC(CC)CNC(=N)NC(=N)NCCCCCCNC(=N)NC(=N)NCC(CC)CCCC (centres unmarked) [C2, alexidine dihydrochloride]",reduction,reduced,efficiently inhibited,suppressed

# From patent publication US11360080B2, “AhR-ROR-γt complex as a biomarker and therapeutic target for autoimmune disease and IL-17A-associated disease” (NATIONAL HEALTH RESEARCH INSTITUTES, priority 2018, dated 2022)
